# Measurements as given in ChEMBL document CHEMBL1201862, “PubChem BioAssay data set” (2004).
# Active and inactive are the calls of the source.
# How the values were obtained:
# Cytochrome P450 3A4 [1] = biological target: T1, Cytochrome P450 3A4 (Homo sapiens, UniProt P08684);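 also: CYP3A4 tested as one member of a cytochrome P450 panel screen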
# [2] = biological target: T2, Sentrin-specific protease 8 (Homo sapiens, UniProt Q96LD8); format: functional;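 also: luminescence read-out of SENP8 inhibition, dose-response confirmation following an ultra-high-throughput screen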
# T2 sequence (Q96LD8 whole entry): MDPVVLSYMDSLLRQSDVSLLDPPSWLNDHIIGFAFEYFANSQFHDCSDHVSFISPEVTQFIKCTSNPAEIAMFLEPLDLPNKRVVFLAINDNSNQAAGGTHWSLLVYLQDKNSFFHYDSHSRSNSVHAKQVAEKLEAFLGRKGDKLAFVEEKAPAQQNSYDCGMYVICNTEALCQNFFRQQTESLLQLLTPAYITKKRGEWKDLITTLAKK
# [3] = biological target: T3, Sentrin-specific protease 7 (Homo sapiens, UniProt Q9BQF6); format: functional;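 also: Luminescence-based dose-response confirmation of ultra-high-throughput screening hits, measuring inhibition of SENP7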
# T3 sequence (Q9BQF6 whole entry): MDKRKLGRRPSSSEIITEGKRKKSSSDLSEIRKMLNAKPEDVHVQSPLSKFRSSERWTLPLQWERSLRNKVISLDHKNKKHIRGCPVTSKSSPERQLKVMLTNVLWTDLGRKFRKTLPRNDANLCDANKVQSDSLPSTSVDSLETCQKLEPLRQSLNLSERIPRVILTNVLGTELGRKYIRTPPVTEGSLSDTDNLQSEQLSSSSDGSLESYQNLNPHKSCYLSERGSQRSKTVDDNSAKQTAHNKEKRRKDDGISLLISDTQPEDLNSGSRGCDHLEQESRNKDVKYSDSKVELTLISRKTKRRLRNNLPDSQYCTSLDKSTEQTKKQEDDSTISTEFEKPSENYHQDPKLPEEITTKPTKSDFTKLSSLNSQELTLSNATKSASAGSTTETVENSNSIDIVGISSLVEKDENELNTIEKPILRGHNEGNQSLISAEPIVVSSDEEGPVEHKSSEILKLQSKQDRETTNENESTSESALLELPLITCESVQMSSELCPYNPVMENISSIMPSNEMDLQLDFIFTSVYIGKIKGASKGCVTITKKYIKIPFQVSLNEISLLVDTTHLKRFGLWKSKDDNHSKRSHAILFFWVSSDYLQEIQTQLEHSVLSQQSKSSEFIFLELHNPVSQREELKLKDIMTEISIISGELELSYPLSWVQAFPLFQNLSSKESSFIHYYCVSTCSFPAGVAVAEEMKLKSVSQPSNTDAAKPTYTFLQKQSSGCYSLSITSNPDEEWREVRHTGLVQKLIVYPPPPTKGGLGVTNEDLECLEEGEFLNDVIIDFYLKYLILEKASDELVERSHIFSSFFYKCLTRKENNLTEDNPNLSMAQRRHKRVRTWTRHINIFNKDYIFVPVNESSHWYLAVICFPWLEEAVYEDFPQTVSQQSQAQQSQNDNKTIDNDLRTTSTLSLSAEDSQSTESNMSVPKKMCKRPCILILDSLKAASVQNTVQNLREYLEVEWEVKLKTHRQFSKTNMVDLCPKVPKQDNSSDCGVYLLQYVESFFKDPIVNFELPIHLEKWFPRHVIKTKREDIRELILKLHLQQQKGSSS
# [4] = biological target: T4, Heat shock factor protein 1 (Mus musculus, UniProt P38532); test: HSF1 potentiators in luciferase reporter cells, confirmation, cell-based, NIH3T3, luminescence, dose retest (AID 435004); format: functional;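 also: stress induced by proteasome inhibitor MG132 added 30 min after compound; luciferase reporter driven by HSF1 response element in NIH3T3 cells; actives raise luminescence as potentiators of the MG132 stress response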
# T4 sequence (P38532 whole entry): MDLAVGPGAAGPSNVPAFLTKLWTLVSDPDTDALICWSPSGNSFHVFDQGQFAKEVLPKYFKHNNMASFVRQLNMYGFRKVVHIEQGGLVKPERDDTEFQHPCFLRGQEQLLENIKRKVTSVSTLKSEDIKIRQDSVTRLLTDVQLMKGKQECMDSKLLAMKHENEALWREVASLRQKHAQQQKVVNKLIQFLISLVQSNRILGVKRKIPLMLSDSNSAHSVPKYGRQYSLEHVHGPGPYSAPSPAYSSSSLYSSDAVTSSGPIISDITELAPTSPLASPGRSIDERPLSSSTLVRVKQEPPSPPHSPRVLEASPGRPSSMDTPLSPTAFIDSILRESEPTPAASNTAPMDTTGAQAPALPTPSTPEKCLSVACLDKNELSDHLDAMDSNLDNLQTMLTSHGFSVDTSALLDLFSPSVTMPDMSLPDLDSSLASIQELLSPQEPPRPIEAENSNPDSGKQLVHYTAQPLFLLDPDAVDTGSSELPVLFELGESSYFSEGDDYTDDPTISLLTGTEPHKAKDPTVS
# Caspase-3 = biological target: T5, Caspase-3 (Homo sapiens, UniProt P42574); format: functional;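 also: Dose-response selectivity test against caspase-3 for candidate inhibitors of sentrin-specific proteases (SENPs)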
# T5 sequence (P42574 whole entry): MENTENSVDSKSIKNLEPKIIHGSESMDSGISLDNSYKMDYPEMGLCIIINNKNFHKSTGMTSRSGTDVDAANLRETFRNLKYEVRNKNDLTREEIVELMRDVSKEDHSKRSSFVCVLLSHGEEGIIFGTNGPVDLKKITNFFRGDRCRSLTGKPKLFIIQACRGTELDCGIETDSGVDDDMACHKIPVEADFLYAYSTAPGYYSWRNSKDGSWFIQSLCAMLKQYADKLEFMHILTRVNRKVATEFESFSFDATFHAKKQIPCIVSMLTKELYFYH
# [5] = biological target: T6, Sentrin-specific protease 6 (Homo sapiens, UniProt Q9GZR1); format: functional;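 also: Luminescence-based dose-response confirmatory assay of SENP6 inhibition, following up an ultra-high-throughput screen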
# T6 sequence (Q9GZR1 whole entry): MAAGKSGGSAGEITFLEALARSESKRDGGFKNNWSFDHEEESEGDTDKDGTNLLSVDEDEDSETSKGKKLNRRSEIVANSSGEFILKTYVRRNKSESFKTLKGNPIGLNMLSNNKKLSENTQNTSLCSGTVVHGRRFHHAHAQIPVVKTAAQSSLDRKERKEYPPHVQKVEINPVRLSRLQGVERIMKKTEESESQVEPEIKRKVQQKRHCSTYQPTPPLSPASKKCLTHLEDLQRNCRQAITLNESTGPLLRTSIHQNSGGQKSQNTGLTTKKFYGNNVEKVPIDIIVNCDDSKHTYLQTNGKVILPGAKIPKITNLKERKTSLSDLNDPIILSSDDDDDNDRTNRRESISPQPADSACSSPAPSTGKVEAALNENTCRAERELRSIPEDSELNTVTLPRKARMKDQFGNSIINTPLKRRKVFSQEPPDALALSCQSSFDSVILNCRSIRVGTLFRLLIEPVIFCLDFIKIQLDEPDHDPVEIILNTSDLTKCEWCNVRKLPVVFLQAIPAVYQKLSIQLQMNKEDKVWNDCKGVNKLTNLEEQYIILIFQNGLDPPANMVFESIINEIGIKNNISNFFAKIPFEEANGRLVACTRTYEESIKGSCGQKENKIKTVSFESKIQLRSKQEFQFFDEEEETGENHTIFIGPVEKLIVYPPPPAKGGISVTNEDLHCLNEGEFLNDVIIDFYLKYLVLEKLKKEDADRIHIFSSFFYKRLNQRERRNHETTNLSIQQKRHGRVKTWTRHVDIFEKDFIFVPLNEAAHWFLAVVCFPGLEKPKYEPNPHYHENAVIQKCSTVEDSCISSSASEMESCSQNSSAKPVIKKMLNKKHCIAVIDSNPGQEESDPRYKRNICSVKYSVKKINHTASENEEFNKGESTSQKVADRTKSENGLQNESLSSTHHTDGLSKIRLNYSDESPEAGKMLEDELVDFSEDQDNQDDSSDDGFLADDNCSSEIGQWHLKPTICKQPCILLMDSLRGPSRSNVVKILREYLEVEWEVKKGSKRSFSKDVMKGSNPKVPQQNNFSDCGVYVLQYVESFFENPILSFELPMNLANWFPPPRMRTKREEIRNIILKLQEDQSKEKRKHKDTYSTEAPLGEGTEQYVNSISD
# Cytochrome P450 3A4 [6] = biological target: T1, Cytochrome P450 3A4; remark: listed apart in the source
# Cytochrome P450 2C19 = Cytochrome P450 2C19 (Homo sapiens, UniProt P33261); test: Cytochrome panel assay with activity outcomes. Panel member name: p450-cyp2c19 Compounds with AC50 equal or less than 10 uM are considered active; format: functional; settings: read-out: AC50
# Chain of Cytochrome P450 2C19 (P33261 whole entry): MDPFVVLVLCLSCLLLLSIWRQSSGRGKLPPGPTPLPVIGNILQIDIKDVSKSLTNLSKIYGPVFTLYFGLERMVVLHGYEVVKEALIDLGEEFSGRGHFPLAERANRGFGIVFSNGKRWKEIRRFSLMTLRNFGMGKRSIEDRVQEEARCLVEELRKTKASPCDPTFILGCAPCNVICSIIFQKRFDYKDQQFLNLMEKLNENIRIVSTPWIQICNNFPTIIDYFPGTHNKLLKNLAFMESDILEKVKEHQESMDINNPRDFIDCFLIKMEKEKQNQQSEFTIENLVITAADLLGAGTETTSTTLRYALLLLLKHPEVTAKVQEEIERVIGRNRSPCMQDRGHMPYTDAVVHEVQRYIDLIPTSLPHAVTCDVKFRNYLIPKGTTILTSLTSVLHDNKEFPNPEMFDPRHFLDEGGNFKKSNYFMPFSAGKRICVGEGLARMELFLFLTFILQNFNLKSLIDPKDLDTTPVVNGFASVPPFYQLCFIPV
# [7] = MC4R antagonists, dose response, counter-screen for LGR2 antagonist project, cell-based, plate reader, cherry pick (AID 743444); format: functional;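 also: transfected HEK 293 cells stimulated with alpha-MSH peptide; potency of inhibitors of the alpha-MSH evoked signal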
# H9c2 = test: cells; format: functional, cell-based; settings: Rattus norvegicus, H9c2, Myocardium;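 also: confirmatory concentration-response retest of ultra-high-throughput screening hits for modulation of myocardial damage; cell death induced by hydrogen peroxide oxidative stress; compound pretreatment for 60 min then peroxide exposure for 2 h; potency is for protecting the cells against peroxide damage rather than for killing them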
# [8] = LGR2 antagonists, dose response, cell-based, HEK293, CRE-luciferase reporter, cherry pick, set 2 (AID 743343); format: functional;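 also: transfected cells were stimulated with diluted bursicon conditioned medium after compound addition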
# [9] = biological target: T7, Mannose-6-phosphate isomerase (Homo sapiens, UniProt P34949); test: human PMI inhibitors, high substrate, primary screen, biochemical, fluorescence intensity, high mannose 6-phosphate (AID 1220)
# T7 sequence (P34949 whole entry): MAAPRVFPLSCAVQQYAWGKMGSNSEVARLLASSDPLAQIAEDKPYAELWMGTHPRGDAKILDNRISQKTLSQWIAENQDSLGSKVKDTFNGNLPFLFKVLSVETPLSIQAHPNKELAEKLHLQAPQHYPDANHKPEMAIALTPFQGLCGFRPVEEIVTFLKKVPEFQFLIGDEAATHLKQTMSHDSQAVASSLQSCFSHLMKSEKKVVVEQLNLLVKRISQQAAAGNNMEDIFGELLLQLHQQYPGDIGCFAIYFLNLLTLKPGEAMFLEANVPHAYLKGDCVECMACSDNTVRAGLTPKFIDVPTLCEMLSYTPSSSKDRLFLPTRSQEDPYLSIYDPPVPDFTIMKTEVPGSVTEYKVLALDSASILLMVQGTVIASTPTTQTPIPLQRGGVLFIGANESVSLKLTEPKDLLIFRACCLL
# cells = format: functional
# [10] = THP-1 cell cytotoxicity, dose response, cytotoxicity control for non-replicating M. tuberculosis project (AID 489025); format: functional
# [11] = tested on: Streptococcus sp. 'group A'; test: growth inhibition of control SK(-) GAS strain, dose response, counter-screen for streptokinase expression inhibitor project, luminescence, kanamycin, BacTiterGlo, confirmation (AID 1900); format: functional, organism-based
# [12] = Vero E6 cell cytotoxicity, dose response, cytotoxicity control for non-replicating M. tuberculosis project, secondary assay (AID 492998); format: functional, VeroE6; settings: Vero C1008
# Streptococcus = test: Group A Streptococcus viability loss, dose response, counter-screen for streptokinase expression inhibitor project, luminescence, BacTiterGlo (AID 1915); format: functional, organism-based;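 also: potency for reduction of bacterial viability or growth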
# [13] = microbe, parasite or virus in culture; format: functional; settings: Mycobacterium tuberculosis
# Cytochrome P450 2C9 = Cytochrome P450 2C9 (Homo sapiens, UniProt P11712)
# Chain of Cytochrome P450 2C9 (P11712 whole entry): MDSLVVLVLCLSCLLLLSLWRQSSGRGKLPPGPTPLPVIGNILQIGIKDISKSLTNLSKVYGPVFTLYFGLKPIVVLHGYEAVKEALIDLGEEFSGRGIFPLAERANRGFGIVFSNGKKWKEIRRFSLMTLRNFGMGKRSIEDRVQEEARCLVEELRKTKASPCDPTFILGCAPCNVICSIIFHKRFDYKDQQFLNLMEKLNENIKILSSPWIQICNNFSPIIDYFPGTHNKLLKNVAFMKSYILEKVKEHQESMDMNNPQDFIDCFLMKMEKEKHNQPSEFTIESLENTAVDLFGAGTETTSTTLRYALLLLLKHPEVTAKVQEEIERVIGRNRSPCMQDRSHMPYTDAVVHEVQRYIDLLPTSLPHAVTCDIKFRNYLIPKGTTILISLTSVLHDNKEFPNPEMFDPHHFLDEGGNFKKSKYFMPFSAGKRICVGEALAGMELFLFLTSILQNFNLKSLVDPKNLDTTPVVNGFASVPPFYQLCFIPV
# [14] = cytotoxicity in HEK-293T cells, dose response, cytotoxicity control for BCR NF-kB inhibitor project, luminescence, B-cell screen hits (AID 489021); format: functional, cell-based;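 also: HEK-293T cells carrying an NF-kB luciferase reporter; cells exposed to compound for about 14 hours before viability readout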
# [15] = biological target: T4, Heat shock factor protein 1; test: inhibition of MG132-induced HSE-luciferase signal, confirmation, cell-based, NIH3T3, luminescence, dose retest (AID 2382); format: functional;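 also: NIH3T3 fibroblasts with HSF1-driven luciferase reporter stressed by proteasome inhibitor MG132; luminescence from HSF1-driven luciferase expression after 8 hours of MG132 stress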
# T1 sequence (P08684 whole entry): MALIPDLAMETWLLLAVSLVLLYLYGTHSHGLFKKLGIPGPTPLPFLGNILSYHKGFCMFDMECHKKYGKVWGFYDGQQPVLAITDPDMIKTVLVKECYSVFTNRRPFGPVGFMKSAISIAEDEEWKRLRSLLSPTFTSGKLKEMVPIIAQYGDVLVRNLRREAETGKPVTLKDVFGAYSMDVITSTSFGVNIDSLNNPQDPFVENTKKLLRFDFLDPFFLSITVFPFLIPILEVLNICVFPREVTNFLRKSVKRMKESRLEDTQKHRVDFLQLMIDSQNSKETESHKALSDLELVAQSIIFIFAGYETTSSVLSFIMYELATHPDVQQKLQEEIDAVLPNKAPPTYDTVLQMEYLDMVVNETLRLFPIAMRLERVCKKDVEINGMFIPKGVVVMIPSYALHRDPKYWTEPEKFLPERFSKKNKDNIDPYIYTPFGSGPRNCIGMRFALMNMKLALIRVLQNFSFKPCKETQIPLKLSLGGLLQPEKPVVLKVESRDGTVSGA
smiles,measurement,setting,value
COc1ccc(NC(=O)N2CCC3(CC2)CCN(C(=O)c2cccc(F)c2)CC3)cc1,AC50,Cytochrome P450 3A4 [1],inconclusive
NC(=O)c1ccccc1OCC(=O)Nc1ccc(Cl)c(Cl)c1,IC50,[2],> 100 µM (inactive)
same,IC50,[3],10.4 µM (active)
same,EC50,[4],> 260 µM (inconclusive)
same,IC50,Caspase-3,37.8 µM (active)
same,IC50,[5],> 100 µM (inactive)
CCOc1ccc(-n2nc3cc(C)c(N)cc3n2)cc1,IC50,[2],59.3 µM (active)
same,IC50,[3],2.94 µM (active)
same,IC50,Caspase-3,7.93 µM (active)
same,IC50,[5],6.21 µM (active)
C[C@H](O/N=C1/[C@H]2O[C@@H]2[C@@H](O)[C@H]2[C@H]1CCn1c(=O)n(-c3ccccc3)c(=O)n12)c1cn([C@H](CO)Cc2ccccc2)nn1,AC50,Cytochrome P450 3A4 [6],3.98 µM (inconclusive)
same,AC50,Cytochrome P450 3A4 [1],3.98 µM (inconclusive)
CCOc1ccccc1CNCCN1CCOCC1.Cl,EC50,[4],> 260 µM (inactive)
same,AC50,Cytochrome P450 3A4 [1],inconclusive
O=C(O)c1cccc(NC(=O)c2cccc(S(=O)(=O)N3CCc4ccccc43)c2)c1,IC50,[2],24.4 µM (active)
same,IC50,[3],9.85 µM (active)
same,IC50,Caspase-3,90.5 µM (active)
same,IC50,[5],23.7 µM (active)
CCCC(=O)N1CCN(c2ccc(NC(=O)c3ccc(OCC)c([N+](=O)[O-])c3)cc2)CC1,AC50,Cytochrome P450 2C19,28.2 µM (inconclusive)
same,AC50,Cytochrome P450 3A4 [1],inconclusive
COc1cc(NC(=O)c2cccc3c(-c4cnn(C)c4)coc23)cc(OC)c1OC,AC50,[7],17.9 µM (active)
same,IC50,H9c2,> 79 µM (inactive)
same,AC50,[8],24.3 µM (active)
Cc1cc(N2CCOCC2)nc2ccc(Cc3ccc4nc(N5CCOCC5)cc(C)c4c3)cc12,AC50,Cytochrome P450 3A4 [1],inconclusive
Cc1ccc(S(=O)(=O)N(C)C)cc1NC(S)=Nc1ccc2c[nH]nc2c1,IC50,[9],> 50 µM (not active)
Cc1ccc2nc(N/C(N)=N/C(=O)NC3CCCCC3)nc(C)c2c1,IC50,cells,3.74 µM (active)
same,CC50,[10],23.2 µM (active)
same,EC50,[11],5.35 µM (active)
same,CC50,[12],18.5 µM (active)
same,EC50,Streptococcus,> 150 µM (not active)
same,CC50,[13],21.1 µM (active)
Cn1c(=O)c(-c2ccc(Cl)cc2)nc2cnc(N3CCOCC3)nc21,AC50,Cytochrome P450 3A4 [1],inconclusive
same,AC50,Cytochrome P450 2C9,inconclusive
O=C(O)CCN1C(=O)/C(=C/c2nc3ccccc3[nH]2)SC1=S,IC50,[14],> 80 µM (inactive)
same,EC50,[15],7.78 µM (active)
O=C(NCCCN1CCC(Cc2ccccc2)CC1)C1CCN(S(=O)(=O)N2CCOCC2)CC1,AC50,Cytochrome P450 2C19,25.1 µM (inconclusive)
same,AC50,Cytochrome P450 3A4 [1],inconclusive
